Where two headings read alike, the source gives them in different places.
Columns and labels:
HIV-1 NL4.3^AZTres. (X4) = settings: read-out: EC50 (µM ± SEM); MT-4 cells; NL4.3 resistant to azidothymidine (AZT); MTS/PES
HSV-2 strain G = experiment: Time-of-drug-addition study, HSV-2; format: cell-based; settings: HEL cells; LabyA1 19 µM, ACV 35 µM; after 3 days
Protocol: TOA experiments for HSV-2 were performed identically as the viral replication assays, but each compound separately (LabyA1 or ACV) was added together with the virus (0 h) or after 2 h post-infection. The reference compound was added at least 100 times its EC50-value, as obtained in the HEL cell line (Table 3).

HIV-1 IIIB (X4) = settings: read-out: EC50 (µM ± SEM), MT-4 cells, MTS/PES method
HSV-1 wild-type = settings: read-out: Median EC50; median over HSV-1 wild-type strains; HEL cells
[1] = system: HSV-1 TK^- RV-179 (clinical isolate); settings: HEL cells, CPE
[2] = system: HSV-2 wild-type G (reference strain); settings: HEL cells; HSV-2 G; CPE
[3] = system: HSV-2 wild-type RV-24 (clinical isolate); settings: HEL cells; HSV-2 RV-24; CPE
R5 HIV-1 gp120 YU2 = target: T1, R5 HIV-1 gp120 YU2 (Human immunodeficiency virus type 1 group M subtype B, UniProt P35961); experiment: Surface plasmon resonance; format: binding
T1 construct: Recombinant gp120 proteins from X4 HIV-1 IIIB strain (ImmunoDiagnostics Inc., Woburn, MA) and from R5 HIV-1 strains ADA and YU2; purchased ImmunoDiagnostics Inc
Protocol: (§1) Recombinant gp120 proteins from X4 HIV-1 IIIB strain (ImmunoDiagnostics Inc., Woburn, MA) and from R5 HIV-1 strains ADA and YU2 (ImmunoDiagnostics Inc.) were covalently immobilized on a CM5 sensor chip in 10 mM sodium acetate, pH 4.0, using standard amine coupling chemistry. […] A reference flow cell was used as a control for non-specific binding and refractive index changes. […] Samples (in duplicate) were injected for 2 minutes at a flow rate of 45 µl/min and the dissociation was followed for 4 minutes. Several buffer blanks were used for double referencing. The CM5 sensor chip surface was regenerated with a single injection of 50 mM NaOH. A DMSO concentration series was included to eliminate the contribution of DMSO to the measured response. […] The experimental data were fit using the 1∶1 binding model Biacore T200 Evaluation software 1.0 to determine the binding kinetics.

X4 HIV-1 gp120 IIIB = target: T2, X4 HIV-1 gp120 IIIB (Human immunodeficiency virus type 1 group M subtype B, UniProt P04578); experiment: Surface plasmon resonance; format: binding
T2 construct: Recombinant gp120 proteins from X4 HIV-1 IIIB strain; purchased ImmunoDiagnostics Inc., Woburn, MA
Protocol: as §1

[4] = system: drug-resistant HIV strains; settings: read-out: Median EC50; median over 6 drug-resistant HIV-1 strains in MT-4
[5] = system: DC-SIGN-mediated transmission of HIV-1 HE; settings: for p24 Ag concentration: without compound 263.9 ng/ml
Protocol: Raji.DC-SIGN^+ cells (200 µl; 2.5×10^6 cells/ml) were exposed to high amounts of HIV-1 HE (100 µl; p24, ∼3×10^6 pg/ml) for 1 h at 37°C. Unbound virus from the Raji.DC-SIGN^+ cells was removed by washing twice with cell culture medium. In the meantime, 100 µl of various concentrations of LabyA1 were added in a 96-well plate and incubated for 1 h with the C8166 target T cells (50 µl; 2×10^6 cells/ml). The same amount of virus exposed Raji.DC-SIGN^+ cells (Raji.DC-SIGN/HE) were mixed with the antiviral drug exposed C8166 target T cells.

HIV-1 NL4.3^T20res. (X4) = settings: read-out: EC50 (µM ± SEM); MT-4 cells; NL4.3 resistant to enfuvirtide (T20); MTS/PES
HSV-2 wild-type = settings: read-out: Median EC50; median over HSV-2 wild-type strains; HEL cells
[6] = system: HIV-1 NPO3 (clinical isolate; X4); settings: PBMCs; NPO3, group M subtype E; p24 Ag ELISA
[7] = system: HSV-1 wild-type C559142 (clinical isolate); settings: HEL cells; HSV-1 C559142; CPE
HIV-1 HE (R5/X4) = settings: read-out: EC50 (µM ± SEM), PBMCs, p24 Ag ELISA
[8] = system: HSV-1 TK^- RV-117 (clinical isolate); settings: HEL cells, CPE
HIV-1 IIIB^FGMres. (X4) = settings: read-out: EC50 (µM ± SEM); MT-4 cells; IIIB resistant to feglymycin (FGM); MTS/PES

C/C=C1\NC(=O)[C@H](Cc2ccccc2)NC(=O)[C@@H]2CCCN2C(=O)[C@H](C(C)C)NC(=O)[C@H](Cc2c[nH]c3ccccc23)NC(=O)[C@]23CSC[C@H](NC1=O)C(=O)N[C@H](C(=O)O)CSSC[C@H](NC(=O)[C@@H]1CSC[C@]4(C[C@H](N)C(=O)N[C@@H](CC(N)=O)C(=O)N[C@@H](C)C(=O)N4)C(=O)N[C@@H](C(C)C)C(=O)N[C@@H](Cc4c[nH]c5ccccc45)C(=O)N[C@@H](CCC(=O)O)C(=O)N1)C(=O)N[C@@H](C2)C(=O)N[C@@H]([C@@H](C)O)C(=O)NCC(=O)N3 [LabyA1, labyrinthopeptin A1]
EC50 (HIV-1 NL4.3^AZTres. (X4)): 1.1 ± 0.1 µM
HSV-2 induced CPE, compound given simultaneously with virus (0 h) (HSV-2 strain G): no CPE or viral replication were observed
antiviral activity, compound added after 2 h adsorption period (HSV-2 strain G): significant decrease
EC50 (HIV-1 IIIB (X4)): 2 ± 0.6 µM
EC50 (HSV-1 wild-type): 1.6 µM
EC50 [1]: 1.9 ± 0.3 µM
EC50 [2]: 0.32 ± 0.05 µM
EC50 [3]: 0.41 ± 0.28 µM
Kd (R5 HIV-1 gp120 YU2): 9.8 ± 1.6 µM
Kd (X4 HIV-1 gp120 IIIB): 7.8 ± 2.1 µM
EC50 [4]: 2.1 µM
EC50 (HIV-1 clinical isolates; read-out: EC50 range, range over 9 HIV-1 clinical isolates in PBMCs): 0.7 to 1.9 µM
EC50 (HIV-1 clinical isolates; read-out: Median EC50, median over 9 HIV-1 clinical isolates in PBMCs): 1 µM
giant cell formation ([5]; 9.6 µM): fully protected the cells from giant cell formation
p24 Ag concentration ([5]; 9.6 µM): < 25 pg/mL
inhibitory effect ([5]; 1.9 and 0.19 µM): not detectable
p24 Ag concentration ([5]; 1.9 and 0.19 µM): 393700 pg/mL
EC50 ([5]; read-out: EC50, DC-SIGN-mediated transmission and subsequent replication of HIV-1, Raji.DC-SIGN/HE cocultured with C8166 T cells, 24 h): 4.1 µM
EC50 (HIV-1 NL4.3^T20res. (X4)): 2.3 ± 0.3 µM
EC50 (HSV-2 wild-type): 0.41 µM
EC50 [6]: 1.6 ± 0.3 µM
EC50 [7]: 0.45 ± 0.02 µM
EC50 (HIV-1 HE (R5/X4)): 1.8 ± 0.3 µM
EC50 [8]: 1.9 ± 0.6 µM
EC50 (HIV-1 IIIB^FGMres. (X4)): 1.9 ± 0.1 µM
